From ChEMBL document CHEMBL5058645, “Data for DCP probe JNJ-6204” (2022)

How the values were obtained:
[1] = molecular target: NUAK family SNF1-like kinase 2 (Homo sapiens) (UniProt Q9H093); assay: NUAK2(h) Kinase panel; details: Compound concentration 1.0 uM, tested as the 2H-labelled form
[2] = molecular target: 5-hydroxytryptamine receptor 1A (Homo sapiens) (UniProt P08908); details: Compound concentration 10.0 uM, tested as the 2H-labelled form
[3] = molecular target: Death-associated protein kinase 1 (Homo sapiens) (UniProt P53355); assay: DAPK1(h) Kinase panel; details: Compound concentration 1.0 uM, tested as the 2H-labelled form
[4] = molecular target: Serine/threonine-protein kinase MRCK beta (Homo sapiens) (UniProt Q9Y5S2); assay: MRCKbeta(h) Kinase panel; details: Compound concentration 1.0 uM, tested as the 2H-labelled form
[5] = molecular target: Ephrin type-A receptor 5 (Homo sapiens) (UniProt P54756); assay: EphA5(h) Kinase panel; details: Compound concentration 1.0 uM, tested as the 2H-labelled form
Chain of Ephrin type-A receptor 5 (Homo sapiens) (P54756 whole entry): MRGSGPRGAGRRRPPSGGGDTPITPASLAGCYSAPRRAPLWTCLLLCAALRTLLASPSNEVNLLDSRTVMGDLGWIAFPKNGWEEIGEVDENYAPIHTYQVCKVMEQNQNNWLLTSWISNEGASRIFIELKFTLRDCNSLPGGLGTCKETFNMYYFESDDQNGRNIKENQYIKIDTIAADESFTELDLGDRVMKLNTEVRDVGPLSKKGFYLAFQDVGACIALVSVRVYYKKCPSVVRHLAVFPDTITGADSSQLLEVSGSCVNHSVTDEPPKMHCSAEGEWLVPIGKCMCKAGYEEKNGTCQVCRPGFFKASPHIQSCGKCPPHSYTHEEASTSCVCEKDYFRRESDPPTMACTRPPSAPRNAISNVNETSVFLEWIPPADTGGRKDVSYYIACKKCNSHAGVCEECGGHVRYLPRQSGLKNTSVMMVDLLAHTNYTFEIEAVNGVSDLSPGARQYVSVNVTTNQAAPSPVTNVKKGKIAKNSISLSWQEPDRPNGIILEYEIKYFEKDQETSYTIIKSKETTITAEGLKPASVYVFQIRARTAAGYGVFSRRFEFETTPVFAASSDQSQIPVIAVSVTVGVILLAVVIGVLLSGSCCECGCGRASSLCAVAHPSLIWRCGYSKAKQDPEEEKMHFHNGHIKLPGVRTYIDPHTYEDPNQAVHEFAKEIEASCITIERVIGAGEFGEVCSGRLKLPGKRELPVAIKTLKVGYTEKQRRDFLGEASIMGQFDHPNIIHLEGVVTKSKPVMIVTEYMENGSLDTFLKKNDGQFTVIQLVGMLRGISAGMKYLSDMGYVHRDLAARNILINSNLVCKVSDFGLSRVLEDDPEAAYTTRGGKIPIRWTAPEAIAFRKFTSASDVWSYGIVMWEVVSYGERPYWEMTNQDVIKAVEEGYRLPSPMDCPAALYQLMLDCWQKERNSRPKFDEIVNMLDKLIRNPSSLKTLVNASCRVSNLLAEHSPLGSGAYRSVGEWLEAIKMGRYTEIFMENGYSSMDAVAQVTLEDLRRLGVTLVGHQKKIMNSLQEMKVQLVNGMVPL

[6] = molecular target: Tyrosine-protein kinase SYK (Homo sapiens) (UniProt P43405); assay: Syk(h) Kinase panel; details: Compound concentration 1.0 uM, tested as the 2H-labelled form
[7] = molecular target: Mast/stem cell growth factor receptor Kit (Homo sapiens) (UniProt P10721); assay: cKit(h) Kinase panel; details: Compound concentration 1.0 uM, tested as the 2H-labelled form
[8] = molecular target: Eukaryotic translation initiation factor 2-alpha kinase 3 (Homo sapiens) (UniProt Q9NZJ5); assay: PEK(h) Kinase panel; details: Compound concentration 1.0 uM, tested as the 2H-labelled form
[9] = molecular target: Phosphatidylinositol 5-phosphate 4-kinase type-2 alpha (Homo sapiens) (UniProt P48426); assay: PIP4K2a(h) Kinase panel; details: Compound concentration 1.0 uM, tested as the 2H-labelled form
Chain of Phosphatidylinositol 5-phosphate 4-kinase type-2 alpha (Homo sapiens) (P48426 whole entry): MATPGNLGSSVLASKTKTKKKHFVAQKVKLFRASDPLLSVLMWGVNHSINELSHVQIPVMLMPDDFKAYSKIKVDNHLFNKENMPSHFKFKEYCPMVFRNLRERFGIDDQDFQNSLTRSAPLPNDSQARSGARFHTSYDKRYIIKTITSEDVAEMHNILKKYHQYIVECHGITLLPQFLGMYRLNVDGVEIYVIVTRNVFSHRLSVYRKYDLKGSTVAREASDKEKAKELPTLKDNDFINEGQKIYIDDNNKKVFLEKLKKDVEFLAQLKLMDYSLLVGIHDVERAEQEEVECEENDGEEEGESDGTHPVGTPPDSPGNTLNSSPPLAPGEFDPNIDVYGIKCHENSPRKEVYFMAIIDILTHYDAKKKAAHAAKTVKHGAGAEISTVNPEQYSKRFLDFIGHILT

[10] = molecular target: Insulin-like growth factor 1 receptor (Homo sapiens) (UniProt P08069); assay: IGF-1R(h), activated Kinase panel; details: Compound concentration 1.0 uM, tested as the 2H-labelled form
[11] = molecular target: Ephrin type-A receptor 7 (Homo sapiens) (UniProt Q15375); assay: EphA7(h) Kinase panel; details: Compound concentration 1.0 uM, tested as the 2H-labelled form
Chain of Ephrin type-A receptor 7 (Homo sapiens) (Q15375 28-998 limits assumed): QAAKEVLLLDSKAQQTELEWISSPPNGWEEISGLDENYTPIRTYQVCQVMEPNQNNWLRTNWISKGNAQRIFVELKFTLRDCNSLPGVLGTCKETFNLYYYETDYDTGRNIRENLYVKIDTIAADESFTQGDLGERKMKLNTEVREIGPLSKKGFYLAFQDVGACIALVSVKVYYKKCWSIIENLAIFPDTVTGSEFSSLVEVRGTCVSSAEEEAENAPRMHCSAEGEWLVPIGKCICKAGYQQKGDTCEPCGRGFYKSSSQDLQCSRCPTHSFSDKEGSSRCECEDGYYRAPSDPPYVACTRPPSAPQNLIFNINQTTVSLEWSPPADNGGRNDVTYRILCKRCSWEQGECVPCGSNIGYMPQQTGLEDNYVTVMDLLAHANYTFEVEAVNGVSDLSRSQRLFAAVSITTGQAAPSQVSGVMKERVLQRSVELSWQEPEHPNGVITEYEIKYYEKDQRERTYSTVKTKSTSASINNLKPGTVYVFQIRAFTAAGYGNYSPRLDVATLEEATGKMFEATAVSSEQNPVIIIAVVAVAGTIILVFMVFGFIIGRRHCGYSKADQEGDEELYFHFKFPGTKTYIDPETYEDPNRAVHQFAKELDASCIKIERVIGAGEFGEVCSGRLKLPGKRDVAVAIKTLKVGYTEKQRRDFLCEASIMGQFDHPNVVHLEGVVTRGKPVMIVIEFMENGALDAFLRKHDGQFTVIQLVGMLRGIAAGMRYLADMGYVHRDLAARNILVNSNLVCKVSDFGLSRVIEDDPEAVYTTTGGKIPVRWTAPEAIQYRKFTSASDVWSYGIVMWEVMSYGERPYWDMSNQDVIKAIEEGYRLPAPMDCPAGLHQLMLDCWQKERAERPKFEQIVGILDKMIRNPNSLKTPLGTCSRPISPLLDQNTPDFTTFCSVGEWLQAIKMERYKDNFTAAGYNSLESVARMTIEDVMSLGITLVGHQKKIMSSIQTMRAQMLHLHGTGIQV

[12] = molecular target: Epidermal growth factor receptor (Homo sapiens) (UniProt P00533); assay: EGFR(h) Kinase panel; details: Compound concentration 1.0 uM, tested as the 2H-labelled form
[13] = molecular target: Vascular endothelial growth factor receptor 2 (Homo sapiens) (UniProt P35968); assay: KDR(h) Kinase panel; details: Compound concentration 1.0 uM, tested as the 2H-labelled form
[14] = molecular target: Tyrosine-protein kinase JAK2 (Homo sapiens) (UniProt O60674); assay: JAK2(h) Kinase panel; details: Compound concentration 1.0 uM, tested as the 2H-labelled form
[15] = molecular target: Sodium-dependent dopamine transporter (Homo sapiens, UniProt Q01959); details: Compound concentration 10.0 uM, tested as the 2H-labelled form
[16] = molecular target: TGF-beta receptor type-1 (Homo sapiens) (UniProt P36897); assay: TGFBR1(h) Kinase panel; details: Compound concentration 1.0 uM, tested as the 2H-labelled form
[17] = molecular target: Hepatocyte growth factor receptor (Homo sapiens) (UniProt P08581); assay: Met(h) Kinase panel; details: Compound concentration 1.0 uM, tested as the 2H-labelled form
[18] = molecular target: Tyrosine-protein kinase ITK/TSK (Homo sapiens) (UniProt Q08881); assay: Itk(h) Kinase panel; details: Compound concentration 1.0 uM, tested as the 2H-labelled form
[19] = molecular target: Ephrin type-A receptor 2 (Homo sapiens) (UniProt P29317); assay: EphA2(h) Kinase panel; details: Compound concentration 1.0 uM, tested as the 2H-labelled form
[20] = molecular target: BDNF/NT-3 growth factors receptor (Homo sapiens) (UniProt Q16620); assay: TrkB(h) Kinase panel; details: Compound concentration 1.0 uM, tested as the 2H-labelled form
[21] = molecular target: 5-hydroxytryptamine receptor 5A (Homo sapiens) (UniProt P47898); details: Compound concentration 10.0 uM, tested as the 2H-labelled form
[22] = molecular target: SRSF protein kinase 3 (Homo sapiens) (UniProt Q9UPE1); assay: MSSK1(h) Kinase panel; details: Compound concentration 1.0 uM, tested as the 2H-labelled form
[23] = molecular target: Serine/threonine-protein kinase pim-2 (Homo sapiens) (UniProt Q9P1W9); assay: Pim-2(h) Kinase panel; details: Compound concentration 1.0 uM, tested as the 2H-labelled form
[24] = molecular target: Dual specificity protein kinase CLK2 (Homo sapiens) (UniProt P49760); assay: CLK2(h) Kinase panel; details: Compound concentration 1.0 uM, tested as the 2H-labelled form
[25] = molecular target: Beta-adrenergic receptor kinase 1 (Homo sapiens) (UniProt P25098); assay: GRK2(h) Kinase panel; details: Compound concentration 1.0 uM, tested as the 2H-labelled form
[26] = molecular target: Macrophage colony-stimulating factor 1 receptor (Homo sapiens, UniProt P07333); assay: Fms(h) Kinase panel; details: Compound concentration 1.0 uM, tested as the 2H-labelled form
[27] = molecular target: Bone morphogenetic protein receptor type-2 (Homo sapiens) (UniProt Q13873); assay: BMPR2(h) Kinase panel; details: Compound concentration 1.0 uM, tested as the 2H-labelled form
[28] = molecular target: Mitogen-activated protein kinase kinase kinase kinase 4 (Homo sapiens) (UniProt O95819); assay: MAP4K4(h) Kinase panel; details: Compound concentration 1.0 uM, tested as the 2H-labelled form
[29] = molecular target: Casein kinase II subunit alpha (Homo sapiens) (UniProt P68400); assay: CK2alpha1(h) Kinase panel; details: Compound concentration 1.0 uM, tested as the 2H-labelled form
[30] = molecular target: Phosphatidylinositol 4,5-bisphosphate 3-kinase catalytic subunit delta isoform (Homo sapiens) (UniProt O00329); assay: PI3 Kinase (p110d/p85a)(h) Kinase panel; details: Compound concentration 1.0 uM, tested as the 2H-labelled form
[31] = molecular target: Casein kinase I isoform gamma-2 (Homo sapiens) (UniProt P78368); assay: CK1gamma2(h) Kinase panel; details: Compound concentration 1.0 uM, tested as the 2H-labelled form
[32] = molecular target: PAS domain-containing serine/threonine-protein kinase (Homo sapiens) (UniProt Q96RG2); assay: PASK(h) Kinase panel; details: Compound concentration 1.0 uM, tested as the 2H-labelled form
[33] = molecular target: Dual specificity tyrosine-phosphorylation-regulated kinase 1A (Homo sapiens) (UniProt Q13627); assay: DYRK1A(h) Kinase panel; details: Compound concentration 1.0 uM, tested as the 2H-labelled form
[34] = molecular target: MAP kinase-interacting serine/threonine-protein kinase 2 (Homo sapiens) (UniProt Q9HBH9); assay: Mnk2(h) Kinase panel; details: Compound concentration 1.0 uM, tested as the 2H-labelled form
Chain of MAP kinase-interacting serine/threonine-protein kinase 2 (Homo sapiens) (Q9HBH9 whole entry, looked up): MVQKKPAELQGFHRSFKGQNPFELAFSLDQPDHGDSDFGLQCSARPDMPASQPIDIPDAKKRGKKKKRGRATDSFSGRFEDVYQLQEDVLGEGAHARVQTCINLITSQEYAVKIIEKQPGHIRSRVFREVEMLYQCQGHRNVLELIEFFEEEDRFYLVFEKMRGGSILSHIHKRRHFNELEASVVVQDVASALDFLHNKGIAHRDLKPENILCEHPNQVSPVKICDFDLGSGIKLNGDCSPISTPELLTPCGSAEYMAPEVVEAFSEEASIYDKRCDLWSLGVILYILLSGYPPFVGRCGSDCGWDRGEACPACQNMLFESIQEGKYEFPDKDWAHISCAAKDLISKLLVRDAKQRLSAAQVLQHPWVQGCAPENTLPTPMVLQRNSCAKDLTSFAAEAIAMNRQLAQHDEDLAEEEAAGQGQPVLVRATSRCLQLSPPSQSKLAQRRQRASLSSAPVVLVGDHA

[35] = molecular target: RAF proto-oncogene serine/threonine-protein kinase (Homo sapiens) (UniProt P04049); assay: c-RAF(h) Kinase panel; details: Compound concentration 1.0 uM, tested as the 2H-labelled form
[36] = molecular target: 5-hydroxytryptamine receptor 1B (Homo sapiens) (UniProt P28222); details: Compound concentration 10.0 uM, tested as the 2H-labelled form
[37] = molecular target: Phosphatidylinositol 4-phosphate 5-kinase type-1 alpha (Homo sapiens) (UniProt Q99755); assay: PIP5K1a(h) Kinase panel; details: Compound concentration 1.0 uM, tested as the 2H-labelled form
[38] = molecular target: LIM domain kinase 2 (Homo sapiens) (UniProt P53671); assay: LIMK2(h) Kinase panel; details: Compound concentration 1.0 uM, tested as the 2H-labelled form
[39] = molecular target: Receptor tyrosine-protein kinase erbB-2 (Homo sapiens) (UniProt P04626); assay: ErbB2(h) Kinase panel; details: Compound concentration 1.0 uM, tested as the 2H-labelled form
[40] = molecular target: Ribosomal protein S6 kinase alpha-6 (Homo sapiens) (UniProt Q9UK32); assay: Rsk4(h) Kinase panel; details: Compound concentration 1.0 uM, tested as the 2H-labelled form
[41] = molecular target: Ephrin type-A receptor 8 (Homo sapiens) (UniProt P29322); assay: EphA8(h) Kinase panel; details: Compound concentration 1.0 uM, tested as the 2H-labelled form
[42] = molecular target: D(3) dopamine receptor (Homo sapiens, UniProt P35462); details: Compound concentration 10.0 uM, tested as the 2H-labelled form
[43] = molecular target: MAPK/MAK/MRK overlapping kinase (Homo sapiens) (UniProt Q9UQ07); assay: MOK(h) Kinase panel; details: Compound concentration 1.0 uM, tested as the 2H-labelled form
[44] = molecular target: Calcium/calmodulin-dependent protein kinase kinase 1 (Homo sapiens) (UniProt Q8N5S9); assay: CaMKK1(h) Kinase panel; details: Compound concentration 1.0 uM, tested as the 2H-labelled form
[45] = molecular target: Serine/threonine-protein kinase 24 (Homo sapiens) (UniProt Q9Y6E0); assay: MST3(h) Kinase panel; details: Compound concentration 1.0 uM, tested as the 2H-labelled form
Chain of Serine/threonine-protein kinase 24 (Homo sapiens) (Q9Y6E0 whole entry, looked up): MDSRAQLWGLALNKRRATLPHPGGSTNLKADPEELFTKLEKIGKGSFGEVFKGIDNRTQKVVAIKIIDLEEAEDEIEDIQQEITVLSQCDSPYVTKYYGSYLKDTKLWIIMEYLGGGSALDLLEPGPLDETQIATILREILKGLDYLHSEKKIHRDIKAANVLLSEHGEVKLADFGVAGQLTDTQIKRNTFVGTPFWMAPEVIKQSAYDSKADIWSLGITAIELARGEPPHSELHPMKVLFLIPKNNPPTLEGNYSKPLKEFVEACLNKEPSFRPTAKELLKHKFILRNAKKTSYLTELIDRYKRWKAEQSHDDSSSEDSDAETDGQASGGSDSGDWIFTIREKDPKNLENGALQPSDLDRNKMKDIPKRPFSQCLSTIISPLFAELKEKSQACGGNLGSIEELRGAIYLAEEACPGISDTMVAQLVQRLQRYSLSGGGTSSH

[46] = molecular target: Beta-1 adrenergic receptor (Homo sapiens) (UniProt P08588); details: Compound concentration 10.0 uM, tested as the 2H-labelled form
Chain of Beta-1 adrenergic receptor (Homo sapiens) (P08588 whole entry, looked up): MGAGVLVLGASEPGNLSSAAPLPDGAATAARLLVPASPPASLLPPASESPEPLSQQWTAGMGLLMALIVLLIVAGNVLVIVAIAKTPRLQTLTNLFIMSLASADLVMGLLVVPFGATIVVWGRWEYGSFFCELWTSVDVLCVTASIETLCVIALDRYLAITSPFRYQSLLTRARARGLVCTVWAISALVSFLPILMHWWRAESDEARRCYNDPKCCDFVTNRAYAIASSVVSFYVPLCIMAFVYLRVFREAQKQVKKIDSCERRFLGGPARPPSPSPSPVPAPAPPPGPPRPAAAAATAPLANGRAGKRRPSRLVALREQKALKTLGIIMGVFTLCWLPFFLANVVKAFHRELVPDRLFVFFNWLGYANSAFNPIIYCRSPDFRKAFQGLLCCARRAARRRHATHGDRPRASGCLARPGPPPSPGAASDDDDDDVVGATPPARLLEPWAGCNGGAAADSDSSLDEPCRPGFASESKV

[47] = molecular target: Calcium/calmodulin-dependent protein kinase kinase 2 (Homo sapiens) (UniProt Q96RR4); assay: CaMKK2(h) Kinase panel; details: Compound concentration 1.0 uM, tested as the 2H-labelled form
[48] = molecular target: Interferon-induced, double-stranded RNA-activated protein kinase (Homo sapiens) (UniProt P19525); assay: PKR(h) Kinase panel; details: Compound concentration 1.0 uM, tested as the 2H-labelled form
[49] = molecular target: Tyrosine-protein kinase JAK1 (Homo sapiens) (UniProt P23458); assay: JAK1(h) Kinase panel; details: Compound concentration 1.0 uM, tested as the 2H-labelled form
Chain of Tyrosine-protein kinase JAK1 (Homo sapiens) (P23458 whole entry, canonical isoform): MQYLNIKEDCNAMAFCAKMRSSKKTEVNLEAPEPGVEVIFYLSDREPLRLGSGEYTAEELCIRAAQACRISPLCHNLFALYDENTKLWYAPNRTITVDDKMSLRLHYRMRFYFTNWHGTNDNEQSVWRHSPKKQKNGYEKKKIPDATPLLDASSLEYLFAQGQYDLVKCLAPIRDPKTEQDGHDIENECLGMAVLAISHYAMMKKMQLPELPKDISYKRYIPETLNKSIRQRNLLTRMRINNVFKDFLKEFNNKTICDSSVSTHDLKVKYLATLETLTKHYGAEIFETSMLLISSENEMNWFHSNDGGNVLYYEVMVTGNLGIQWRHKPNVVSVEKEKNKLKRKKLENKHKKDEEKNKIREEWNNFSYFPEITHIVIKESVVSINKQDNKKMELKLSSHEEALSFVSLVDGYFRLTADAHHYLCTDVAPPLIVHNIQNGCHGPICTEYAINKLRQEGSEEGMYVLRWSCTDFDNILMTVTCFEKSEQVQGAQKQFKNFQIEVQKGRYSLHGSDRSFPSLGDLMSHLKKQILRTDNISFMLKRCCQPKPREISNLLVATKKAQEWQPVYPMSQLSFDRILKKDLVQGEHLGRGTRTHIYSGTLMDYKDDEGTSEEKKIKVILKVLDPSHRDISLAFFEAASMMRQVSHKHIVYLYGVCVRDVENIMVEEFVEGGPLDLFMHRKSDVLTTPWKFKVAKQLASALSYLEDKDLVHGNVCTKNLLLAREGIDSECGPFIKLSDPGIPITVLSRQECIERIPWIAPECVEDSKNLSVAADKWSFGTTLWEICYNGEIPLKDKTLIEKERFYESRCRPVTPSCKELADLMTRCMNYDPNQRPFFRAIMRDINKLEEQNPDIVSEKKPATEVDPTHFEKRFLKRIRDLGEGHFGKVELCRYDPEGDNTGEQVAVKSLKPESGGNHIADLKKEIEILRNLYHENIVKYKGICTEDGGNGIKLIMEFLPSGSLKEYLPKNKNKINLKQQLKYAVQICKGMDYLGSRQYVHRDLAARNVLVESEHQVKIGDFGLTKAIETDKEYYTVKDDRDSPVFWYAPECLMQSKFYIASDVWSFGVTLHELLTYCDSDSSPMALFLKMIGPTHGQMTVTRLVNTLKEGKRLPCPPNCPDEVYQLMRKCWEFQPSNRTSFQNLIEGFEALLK

[50] = molecular target: Phosphatidylinositol 4,5-bisphosphate 3-kinase catalytic subunit gamma isoform (Homo sapiens) (UniProt P48736); assay: PI3 Kinase (p120g)(h) Kinase panel; details: Compound concentration 1.0 uM, tested as the 2H-labelled form
[51] = molecular target: Fibroblast growth factor receptor 2 (Homo sapiens) (UniProt P21802); assay: FGFR2(h) Kinase panel; details: Compound concentration 1.0 uM, tested as the 2H-labelled form

Measured: inhibition

CC1(C)Cn2nc(-c3ccc(F)cn3)c(-c3ccnc4[nH]ncc34)c2CO1
inactive: [1] -1% | [2] 1.3% | [3] 10% | [4] 2% | [5] -3% | [6] -8% | [7] -6% | [8] 11% | [9] 0% | [10] 1% | [11] 8% | [12] -8% | [13] 2% | [14] 1% | [15] 43.8% | [16] 43% | [17] 8% | [18] -8% | [19] 17% | [20] -5% | [21] 3.27% | [22] -8% | [23] -4% | [24] 14% | [25] -8% | [26] 0% | [27] -7% | [28] 21% | [29] 2% | [30] 2% | [31] -1% | [32] 24% | [33] 0% | [34] 20% | [35] 12% | [36] 12.4% | [37] -4% | [38] -3% | [39] 9% | [40] 23% | [41] 2% | [42] -0.66% | [43] -9% | [44] 2% | [45] -2% | [46] -1.12% | [47] -9% | [48] 4% | [49] -2% | [50] 2% | [51] 11%
